“Also recorded” adds a separate entry of the source.
What was measured:
[1] = target: T1, SIRT6 (Homo sapiens, UniProt Q8N6T7); test: SIRT6 depalmitoylation reaction (H3K9Palm), recombinant protein; format: biochemical; details: 150 µM, SD always ≤10%
Description: (§1) Next, the selectivity of the compounds for SIRT2 against other sirtuins was also determined. The compounds were tested at the final concentration of 150 µM in the deacetylation reaction of SIRT1, SIRT3 and SIRT6, with this last one being promoted by the addition of the SIRT6 activator MDL-800 and also in the depalmitoylation reaction of SIRT6.

[2] = target: T1, SIRT6; test: SIRT6 deacetylation reaction promoted by the SIRT6 activator MDL-800, recombinant protein; format: biochemical; details: 150 µM, with SIRT6 activator MDL-800, SD always ≤10%
Description: as §1

[3] = tested on: HaCaT cells; format: cell-based
Description: (§2) SCC13 and HaCaT cell lines were a kind gift from Prof. Alessio Nencioni (University of Genoa), and cells were maintained in Gibco™ Keratinocyte SFM 1X medium supplied with prequalified human recombinant epidermal growth factor 1–53 (EGF 1–53) and bovine pituitary extract (BPE, CAT# 17005042) (Thermo Fisher Scientific, Milano, Italy), with 50 IU/mL penicillin and 50 μg/mL streptomycin and cultured as in [36]. SCC13 and HaCaT cells were treated for 48 h with the putative SIRT2 inhibitor, and cell viability was analyzed by a sulforhodamine B assay. Briefly, 5000 cells/well were seeded in 96-well plates in triplicate and allowed to adhere overnight. The day after, the medium was replaced with fresh medium containing increasing concentrations of 5a. After 48 h, TCA was added, and samples were processed as previously described.

[4] = tested on: SCC13 cells; test: Cell viability by sulforhodamine B assay, SCC13; format: cell-based; details: 48 h, increasing concentrations
Description: as §2

[5] = target: T2, SIRT2 (Homo sapiens, UniProt Q8IXJ6); test: SIRT2 deacetylase activity, recombinant SIRT2 with acetylated peptide H3K9Ac and NAD+
T2 sequence (Q8IXJ6 1-389): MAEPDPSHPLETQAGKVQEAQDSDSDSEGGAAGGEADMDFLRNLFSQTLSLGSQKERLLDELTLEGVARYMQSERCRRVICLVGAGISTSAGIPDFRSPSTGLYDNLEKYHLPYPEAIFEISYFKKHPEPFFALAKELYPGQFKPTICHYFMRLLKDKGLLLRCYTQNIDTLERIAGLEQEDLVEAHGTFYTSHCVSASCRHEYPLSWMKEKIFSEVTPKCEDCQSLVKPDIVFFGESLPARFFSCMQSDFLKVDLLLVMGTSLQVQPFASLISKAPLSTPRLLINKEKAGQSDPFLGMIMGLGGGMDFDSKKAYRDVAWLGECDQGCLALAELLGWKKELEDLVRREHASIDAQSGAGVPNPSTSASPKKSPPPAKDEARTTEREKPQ
Description: The effect of urea derivatives on SIRT2 deacetylase activity was evaluated upon incubation of recombinant SIRT2 with an acetylated peptide (H3K9Ac, a peptide acetylated on Lys 9) and the co-substrate NAD^+.

[6] = target: T3, SIRT1 (Homo sapiens, UniProt Q96EB6); test: SIRT1 deacetylation reaction, recombinant protein; format: biochemical; details: deacetylase activity, SD always ≤10%
T3 sequence (Q96EB6 1-747): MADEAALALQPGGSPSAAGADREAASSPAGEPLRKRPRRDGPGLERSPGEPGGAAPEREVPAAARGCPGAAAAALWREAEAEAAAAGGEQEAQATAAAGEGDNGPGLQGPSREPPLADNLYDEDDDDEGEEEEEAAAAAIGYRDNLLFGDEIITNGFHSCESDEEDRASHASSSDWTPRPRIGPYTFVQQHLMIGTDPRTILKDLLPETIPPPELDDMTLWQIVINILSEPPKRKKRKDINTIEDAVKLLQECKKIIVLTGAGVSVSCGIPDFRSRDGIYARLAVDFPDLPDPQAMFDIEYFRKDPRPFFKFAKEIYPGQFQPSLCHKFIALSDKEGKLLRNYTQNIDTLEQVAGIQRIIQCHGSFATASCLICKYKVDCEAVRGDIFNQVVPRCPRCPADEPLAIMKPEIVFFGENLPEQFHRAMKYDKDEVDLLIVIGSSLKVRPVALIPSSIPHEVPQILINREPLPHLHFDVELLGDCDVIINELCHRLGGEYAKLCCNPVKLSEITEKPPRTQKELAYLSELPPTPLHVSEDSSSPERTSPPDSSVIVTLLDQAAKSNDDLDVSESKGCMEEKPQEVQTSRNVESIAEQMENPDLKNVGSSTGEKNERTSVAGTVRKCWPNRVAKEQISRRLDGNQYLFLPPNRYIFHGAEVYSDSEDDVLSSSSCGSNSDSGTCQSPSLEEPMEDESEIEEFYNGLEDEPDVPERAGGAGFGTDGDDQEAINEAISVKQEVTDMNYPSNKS
Description: as §1

[7] = target: T4, SIRT3 (Homo sapiens, UniProt Q9NTG7); test: SIRT3 deacetylation reaction, recombinant protein; format: biochemical; details: deacetylase activity, SD always ≤10%
T4 sequence (Q9NTG7 1-399): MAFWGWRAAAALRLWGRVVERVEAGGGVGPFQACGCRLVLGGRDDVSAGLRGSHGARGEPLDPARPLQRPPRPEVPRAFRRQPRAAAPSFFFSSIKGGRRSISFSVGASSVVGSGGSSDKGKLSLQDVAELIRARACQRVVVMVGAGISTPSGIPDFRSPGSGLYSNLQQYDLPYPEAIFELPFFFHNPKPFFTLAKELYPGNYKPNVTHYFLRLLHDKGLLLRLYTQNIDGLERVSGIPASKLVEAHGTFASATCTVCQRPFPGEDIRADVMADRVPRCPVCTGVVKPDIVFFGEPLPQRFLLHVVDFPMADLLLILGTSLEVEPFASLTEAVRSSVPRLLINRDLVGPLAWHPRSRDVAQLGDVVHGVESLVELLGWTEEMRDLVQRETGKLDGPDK
Description: as §1

[8] = tested on: acetylation of α-tubulin in SCC13 cells; test: Western blot of α-tubulin acetylation (endogenous SIRT2 inhibition) in SCC13 cells; format: cell-based; details: 5 μM, 48 h, Western blot normalized to total α-tubulin
Description: To confirm that the effect of 5a on cell viability was due to its ability to inhibit the endogenous SIRT2, Western blot analyses were performed to quantify the level of acetylation of α-tubulin, a direct substrate of SIRT2 enzymatic activity.
SCC13 cells (3 × 10^5) were seeded in 60 mm Petri dishes and left to adhere overnight. The day after, the medium was replaced with a medium containing 5a at a final concentration of 5 µM or the respective amount of DMSO vehicle. After 48 h, the medium was removed, and cells were washed with PBS and lysed by scraping with 100 µL of lysis buffer (25 mM Tris-HCl, pH 7.8; 2 mM DTT; 2 mM EDTA, 10% glycerol; 1% Triton® X-100). The lysate was clarified by centrifugation, and the protein concentration was measured using the Bradford assay. Twenty µg of proteins were loaded on a 10% polyacrylamide gel and then transferred to a nitrocellulose membrane. The membrane was saturated with 5% skim milk powder solution in TBS-Tween 0.05%. To determine the acetylation of alpha-tubulin, membranes were incubated with an anti-acetyl-alpha-tubulin antibody (#5335, Cell Signaling Technology, Danvers, MA, USA), whose signal was normalized on the total amount of alpha-tubulin (#2125, Cell Signaling Technology).

[9] = target: T2, SIRT2; set-up: method as in PMID 37765125; details: at 150 μM; cited from earlier work

T1 sequence (Q8N6T7 whole entry, species assumed): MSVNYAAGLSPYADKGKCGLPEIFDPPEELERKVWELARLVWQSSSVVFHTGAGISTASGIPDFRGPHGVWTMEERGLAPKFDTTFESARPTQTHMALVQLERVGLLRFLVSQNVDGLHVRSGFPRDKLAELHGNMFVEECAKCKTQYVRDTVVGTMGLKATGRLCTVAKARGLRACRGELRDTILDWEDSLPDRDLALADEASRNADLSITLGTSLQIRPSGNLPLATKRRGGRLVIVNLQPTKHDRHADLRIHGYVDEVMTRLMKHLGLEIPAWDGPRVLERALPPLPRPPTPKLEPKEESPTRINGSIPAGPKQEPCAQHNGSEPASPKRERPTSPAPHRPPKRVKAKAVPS

Row | SMILES | % Inhibition SIRT6 (Depalmiotoylase) [1] | % Inhibition SIRT6 (Deacetylase) [2] | toxicity (cell viability, SRB assay) [3] | cell death / toxicity (cell viability, SRB assay) [4] | IC50 [5] | inhibition at 150 µM ([5]; read-out: % Inhibition SIRT2 (at 150 μM)) | inhibition at 150 µM [6] | inhibition at 150 µM [7] | level of α-tubulin acetylation vs control cells [8] | SIRT2 inhibition percentage [9]
1 | CCOC(=O)c1sc(NC(=O)Nc2cccc(OC)c2)nc1-c1ccc(Br)cc1 [Compound 5a, Ethyl4-(4-bromophenyl)-2-(3-(3-methoxyphenyl)ureido)thiazole-5 carboxylate] | ni | ni | not on the normal keratinocyte cell line HaCaT | concentration-dependent toxicity; also recorded: concentration-dependent cell death | 9 ± 2 µM | 98 ± 5% | 100% | 36% | increases α-tubulin acetylation; also recorded: increased levels of alpha-tubulin acetylation | –
2 | CCc1ccc(Nc2nc(-c3ccc(Cl)cc3)cs2)cc1SC [Compound T1] | – | – | – | – | – | – | – | – | – | 100%

Reference: PMC11508362, “Discovery of Novel Thiazole-Based SIRT2 Inhibitors as Anticancer Agents: Molecular Modeling, Chemical Synthesis and Biological Assays” (International Journal of Molecular Sciences, 2024)
